Results as given in ChEMBL document CHEMBL4382233, “Discovery of novel arylethenesulfonyl fluorides as potential candidates against methicillin-resistant of Staphylococcus aureus (MRSA) for overcoming multidrug resistance of bacterial infections” (2019).
Values after ≈ are worked out from the molar mass of the structure shown. Active and inactive are the calls of the source. The rule behind the calls is not given here.

Key:
Staphylococcus aureus [1] = experiment: Antibacterial activity against methicillin-resistant Staphylococcus aureus after overnight incubation by micro broth dilution analysis; assay type: functional
[2] = tested on: Staphylococcus epidermidis; experiment: Antibacterial activity against methicillin-resistant Staphylococcus epidermidis after overnight incubation by micro broth dilution analysis; assay type: functional
[3] = tested on: Staphylococcus haemolyticus; experiment: Antibacterial activity against methicillin-resistant Staphylococcus haemolyticus after overnight incubation by micro broth dilution analysis; assay type: functional
Staphylococcus aureus [4] = experiment: Antibacterial activity against methicillin-resistant Staphylococcus aureus assessed as zone of inhibition at 50 ug/mL after 24 hrs by agar disc diffusion method; assay type: functional; settings: read-out: IZ
[5] = tested on: Staphylococcus epidermidis; experiment: Antibacterial activity against methicillin-resistant Staphylococcus epidermidis assessed as zone of inhibition at 20 ug/mL after 24 hrs by agar disc diffusion method; assay type: functional; settings: read-out: IZ
[6] = tested on: Staphylococcus epidermidis; experiment: Antibacterial activity against methicillin-resistant Staphylococcus epidermidis assessed as zone of inhibition at 200 ng/mL after 24 hrs by agar disc diffusion method; assay type: functional; settings: read-out: IZ
[7] = tested on: Staphylococcus epidermidis; experiment: Antibacterial activity against methicillin-resistant Staphylococcus epidermidis assessed as zone of inhibition at 400 ng/mL after 24 hrs by agar disc diffusion method; assay type: functional; settings: read-out: IZ
[8] = tested on: Staphylococcus epidermidis; experiment: Antibacterial activity against methicillin-resistant Staphylococcus epidermidis assessed as zone of inhibition at 800 ng/mL after 24 hrs by agar disc diffusion method; assay type: functional; settings: read-out: IZ
[9] = tested on: Staphylococcus haemolyticus; experiment: Antibacterial activity against methicillin-resistant Staphylococcus haemolyticus assessed as zone of inhibition at 50 ug/mL after 24 hrs by agar disc diffusion method; assay type: functional; settings: read-out: IZ
[10] = tested on: Staphylococcus haemolyticus; experiment: Antibacterial activity against methicillin-resistant Staphylococcus haemolyticus assessed as zone of inhibition at 200 ng/mL after 24 hrs by agar disc diffusion method; assay type: functional; settings: read-out: IZ
[11] = tested on: Staphylococcus haemolyticus; experiment: Antibacterial activity against methicillin-resistant Staphylococcus haemolyticus assessed as zone of inhibition at 400 ng/mL after 24 hrs by agar disc diffusion method; assay type: functional; settings: read-out: IZ
[12] = tested on: Staphylococcus haemolyticus; experiment: Antibacterial activity against methicillin-resistant Staphylococcus haemolyticus assessed as zone of inhibition at 800 ng/mL after 24 hrs by agar disc diffusion method; assay type: functional; settings: read-out: IZ
Staphylococcus aureus [13] = experiment: Antibiofilm activity against methicillin-resistant Staphylococcus aureus at 2 times MIC after 24 hrs by crystal violet staining-based UV-visible spectrophotometric analysis; assay type: functional, organism-based
Staphylococcus aureus [14] = experiment: Induction of cellular content release in methicillin-resistant Staphylococcus aureus assessed as DNA content by measuring optical density at 260 nm at MIC after 240 mins by UV-visible spectrophotometric analysis; assay type: functional
Staphylococcus aureus [15] = experiment: Antibacterial activity against methicillin-resistant Staphylococcus aureus assessed as zone of inhibition at 200 ng/mL after 24 hrs by agar disc diffusion method; assay type: functional; settings: read-out: IZ
Staphylococcus aureus [16] = experiment: Antibacterial activity against methicillin-resistant Staphylococcus aureus assessed as zone of inhibition at 400 ng/mL after 24 hrs by agar disc diffusion method; assay type: functional; settings: read-out: IZ
Staphylococcus aureus [17] = experiment: Antibacterial activity against methicillin-resistant Staphylococcus aureus assessed as zone of inhibition at 800 ng/mL after 24 hrs by agar disc diffusion method; assay type: functional; settings: read-out: IZ
Staphylococcus aureus [18] = experiment: Antibiofilm activity against methicillin-resistant Staphylococcus aureus at MIC after 24 hrs by crystal violet staining-based UV-visible spectrophotometric analysis; assay type: functional, organism-based
Staphylococcus aureus [19] = experiment: Antibiofilm activity against methicillin-resistant Staphylococcus aureus planktonic biofilm assessed as optical density at 492 nm at MIC after 24 hrs by crystal violet staining-based UV-visible spectrophotometric analysis; assay type: functional

Molecule | MIC99 (Staphylococcus aureus [1]) [µg/mL] | MIC99 [2] [µg/mL] | MIC99 [3] [µg/mL] | zone of inhibition at 50 µg/mL (Staphylococcus aureus [4]) [mm] | zone of inhibition at 20 µg/mL [5] [mm] | zone of inhibition at 0.2 µg/mL [6] [mm] | zone of inhibition at 0.4 µg/mL [7] [mm] | zone of inhibition at 0.8 µg/mL [8] [mm] | zone of inhibition at 50 µg/mL [9] [mm] | zone of inhibition at 0.2 µg/mL [10] [mm] | zone of inhibition at 0.4 µg/mL [11] [mm] | zone of inhibition at 0.8 µg/mL [12] [mm] | Activity (Staphylococcus aureus [13]) | OD (Staphylococcus aureus [14]) | zone of inhibition at 0.2 µg/mL (Staphylococcus aureus [15]) [mm] | zone of inhibition at 0.4 µg/mL (Staphylococcus aureus [16]) [mm] | zone of inhibition at 0.8 µg/mL (Staphylococcus aureus [17]) [mm] | Activity (Staphylococcus aureus [18]) | OD (Staphylococcus aureus [19])
COc1ccccc1/C=C/S(=O)(=O)F | 69.1 (≈ 319 µM) | 0.829 (≈ 3.83 µM) | 0.837 (≈ 3.87 µM) | 5.2 | 7.2 | 5.1 | 7.2 | 8.4 | 12.2 | 3.2 | 5.2 | 7.1 | Active | – | – | – | – | – | –
Cc1cc(C)cc(/C=C/S(=O)(=O)F)c1 | 40.2 (≈ 188 µM) | 0.818 (≈ 3.82 µM) | 60.2 (≈ 281 µM) | 7.2 | 9.2 | 3.3 | 5.2 | 9.8 | 3.5 | – | – | – | Active | 1.37 | – | – | – | – | –
O=[N+]([O-])c1ccc(/C=C/S(=O)(=O)F)cc1 | 0.823 (≈ 3.56 µM) | 58.2 (≈ 252 µM) | 0.833 (≈ 3.6 µM) | 8.12 | 6.2 | – | – | – | 7.3 | 4.1 | 5.2 | 7.4 | Active | 1.35 | 5.1 | 7.2 | 10.1 | – | –
CS(=O)(=O)c1ccc(/C=C/S(=O)(=O)F)cc1 | 15.1 (≈ 56.9 µM) | 50 (≈ 189 µM) | 43.2 (≈ 163 µM) | 10.3 | 4.2 | – | – | – | – | – | – | – | – | 1.45 | 4.1 | 5.2 | 7.1 | Active | 0.718
O=[N+]([O-])c1cccc(/C=C/S(=O)(=O)F)c1 | 0.843 (≈ 3.65 µM) | 0.831 (≈ 3.59 µM) | 61.6 (≈ 266 µM) | 9.1 | 7.4 | 5.2 | 6.2 | 7.2 | 6.4 | – | – | – | Active | 1.45 | 5.2 | 6.1 | 9.7 | – | –
COc1cccc(/C=C/S(=O)(=O)F)c1 | 0.842 (≈ 3.89 µM) | 55.2 (≈ 255 µM) | 63.2 (≈ 292 µM) | 9.1 | 4.3 | – | – | – | 6.3 | – | – | – | Active | 1.56 | 4.1 | 5.2 | 9.1 | – | –
O=S(=O)(F)/C=C/c1cccc2ccccc12 | 0.82 (≈ 3.47 µM) | 47 (≈ 199 µM) | 51 (≈ 216 µM) | 9.2 | 5.5 | – | – | – | 4.1 | – | – | – | Active | 1.48 | 4.2 | 6.2 | 9.2 | – | –
GENTAMICIN | – | – | – | – | – | – | – | – | – | – | – | – | Active | – | – | – | – | – | 0.808
Cc1cc(/C=C/S(=O)(=O)F)ccc1Br | 0.81 (≈ 2.9 µM) | 50 (≈ 179 µM) | 57.2 (≈ 205 µM) | 12 | 6.3 | – | – | – | 5.3 | – | – | – | Active | 1.61 | 6.2 | 8.2 | 10.4 | – | –
O=S(=O)(F)/C=C/c1ccccc1 | 18.2 (≈ 97.5 µM) | 15.2 (≈ 81.4 µM) | 20.1 (≈ 108 µM) | 8.2 | 11.2 | 0.1 | 4.2 | 5.5 | 7.2 | 0 | 1.2 | 3.2 | – | – | 3.5 | 4.2 | 4.5 | – | –
O=C(O)c1cn(C2CC2)c2cc(N3CCNCC3)c(F)cc2c1=O [CIPROFLOXACIN] | – | – | – | – | – | – | – | – | – | – | – | – | Active | – | – | – | – | – | 0.915
Cc1ccc(/C=C/S(=O)(=O)F)cc1 | 0.836 (≈ 4.18 µM) | 44.2 (≈ 221 µM) | 40.1 (≈ 201 µM) | 10.3 | 6.4 | – | – | – | 6.3 | – | – | – | – | 1.48 | 4.1 | 5.2 | 7.1 | Active | 0.815
CC(C)S(=O)(=O)c1ccc(/C=C/S(=O)(=O)F)cc1 | 0.808 (≈ 2.76 µM) | 41.4 (≈ 142 µM) | 41.2 (≈ 141 µM) | 9 | 6.2 | – | – | – | 5.2 | – | – | – | – | 1.78 | 6.2 | 8.1 | 10.1 | Active | 0.6
O=S(=O)(F)/C=C/c1ccccc1Br | 0.839 (≈ 3.16 µM) | 0.809 (≈ 3.05 µM) | 25.3 (≈ 95.5 µM) | 20.1 | 14.1 | 10.1 | 11.5 | 14.2 | 11.2 | 1.1 | 2.2 | 3.3 | – | 1.58 | 3.5 | 4.4 | 7.2 | – | 0.725
O=S(=O)(F)/C=C/c1cccc(O)c1 | 0.841 (≈ 4.16 µM) | 0.83 (≈ 4.1 µM) | 58.2 (≈ 288 µM) | 12.2 | 7.4 | 4.2 | 5.3 | 7.4 | 4.5 | – | – | – | Active | 1.52 | 3.5 | 4.1 | 6.3 | – | –
